We go through 34 compounds from ChEMBL document CHEMBL4190268, “Design, synthesis and biological studies of a library of NK1-Receptor Ligands Based on a 5-arylthiosubstituted 2-amino-4,6-diaryl-3-cyano-4H-pyran core: Switch from antagonist to agonist effect by chemical modification” (Eur J Med Chem, 2017).

Activity calls are given as the source filed them. The rule behind the calls is not given here. A value given as a limit tells only on which side of the number the result lay.

What is called IC50 is the concentration that inhibits the measured activity by half. A word on the EC50: it is the concentration giving half of the maximal effect.

Data set [1] deals with T1, Substance-P receptor (Homo sapiens, UniProt P25103). The data set can be described thus: Antagonist activity at His6-tagged NK1 receptor (unknown origin) expressed in CHO cells assessed as inhibition of substance-P-induced IP1 accumulation at 5 x 10^-5M preincubated for 10 mins followed by substance-P addition measured after 30 mins by HTRF-FRET assay relative to control. It counts as functional, cell-based. In general terms: Time-resolved FRET reads energy transfer from a long-lived donor to a nearby acceptor.

The target in data set [2] is T1, Substance-P receptor. In words: Antagonist activity at His6-tagged NK1 receptor (unknown origin) expressed in CHO cells assessed as inhibition of substance-P-induced IP1 accumulation at 10^-5 M preincubated for 10 mins followed by substance-P addition measured after 30 mins by HTRF-FRET assay relative to control. Format: functional, cell-based.
Data set [3] relates to A549. In words: Cytotoxicity against human A549 cells assessed as cell death at greater than antiproliferative IC50 after 48 hrs by MTT assay relative to control. Format: functional. (Formazan colour is commonly taken as a measure of viable cells.)
Data set [4] relates to MRC5. The data set can be described thus: Cytotoxicity against human MRC5 cells assessed as cell death at greater than cytotoxic IC50 after 48 hrs by MTT assay relative to control. It counts as cell-based. To be noted: mrc5, 48 h.
Data set [5] concerns A549. In words: cells. The conditions noted are these: Homo sapiens, A549, 48 h.
Data set [6] concerns MRC5. In words: cells. The conditions noted are these: Homo sapiens, MRC5, 48 h.
Description: Cytotoxicity against human MRC5 cells after 48 hrs by MTT assay
Data set [7] has as its target T1, Substance-P receptor. The conditions noted are these: CHO, 10^-7 M.
Description: Antagonist activity at His6-tagged NK1 receptor (unknown origin) expressed in CHO cells assessed as inhibition of substance-P-induced IP1 accumulation at 10^-7 M preincubated for 10 mins followed by substance-P addition measured after 30 mins by HTRF-FRET assay relative to control
The target of data set [8] is T1, Substance-P receptor. The data set can be described thus: Partial agonist activity at His6-tagged NK1 receptor (unknown origin) expressed in CHO cells assessed as IP1 accumulation at 5 x 10^-5M measured after 30 mins by HTRF-FRET assay relative to control. Format: functional, cell-based.
Data set [9] concerns the target T1, Substance-P receptor. In words: Partial agonist activity at His6-tagged NK1 receptor (unknown origin) expressed in CHO cells assessed as IP1 accumulation at 10^-5 M measured after 30 mins by HTRF-FRET assay relative to control. It counts as functional, cell-based.
The target in data set [10] is T1, Substance-P receptor. In words: Antagonist activity at His6-tagged NK1 receptor (unknown origin) expressed in CHO cells assessed as inhibition of substance-P-induced IP1 accumulation preincubated for 10 mins followed by substance-P addition measured after 30 mins by HTRF-FRET assay.
For data set [11], the system named is A549. In words: Cytotoxicity against human A549 cells assessed as cell viability at 320 uM after 48 hrs by MTT assay relative to control. It counts as functional. To be noted: A549, 48 h, read-out: Activity.
Data set [12] is described as follows: Cytotoxicity against human MRC5 cells assessed as cell viability at 320 uM after 48 hrs by MTT assay relative to control. It counts as cell-based. The conditions noted are these: read-out: Activity.
Data set [13] has as its system A549. The data set can be described thus: Growth inhibition of human A549 cells at 10^3 uM after 48 hrs by MTT assay relative to control. Format: functional.
Data set [14] can be described thus: Cytotoxicity against human MRC5 cells assessed as cell growth inhibition at 10^3 uM after 48 hrs by MTT assay relative to control. The conditions noted are these: read-out: GI. Format: cell-based.
Data set [15] has as its system A549. The data set can be described thus: Growth inhibition of human A549 cells at 1 mM by inverted microscopic method. Format: functional, cell-based.
Data set [16] concerns the target T1, Substance-P receptor. The data set can be described thus: Partial agonist activity at His6-tagged NK1 receptor (unknown origin) expressed in CHO cells assessed as IP1 accumulation measured after 30 mins by HTRF-FRET assay. It counts as functional, cell-based.

T1 sequence (P25103 whole entry): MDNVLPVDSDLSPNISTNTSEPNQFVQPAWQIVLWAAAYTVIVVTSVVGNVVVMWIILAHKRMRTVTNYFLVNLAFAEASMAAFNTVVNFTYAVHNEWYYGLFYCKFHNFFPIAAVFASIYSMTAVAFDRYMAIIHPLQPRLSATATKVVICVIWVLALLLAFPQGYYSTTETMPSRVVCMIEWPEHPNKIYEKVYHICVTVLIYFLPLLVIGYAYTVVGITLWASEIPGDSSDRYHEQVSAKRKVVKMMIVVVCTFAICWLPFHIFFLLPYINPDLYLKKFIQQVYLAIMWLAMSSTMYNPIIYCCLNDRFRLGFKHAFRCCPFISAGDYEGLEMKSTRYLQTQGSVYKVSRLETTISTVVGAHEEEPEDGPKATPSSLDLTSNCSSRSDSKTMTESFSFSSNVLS

Take `Cc1ccc([S@+]([O-])C2=C(c3ccccn3)OC(N)=C(C#N)[C@H]2c2ccccc2)cc1`: the figures for the inhibition in data set [1] and in [2] were 51.1% and 42%, respectively. For the same compound, the Activity result in data set [3] is “<=80%”; in data set [4] it was < 30%. Besides, the results for the IC50 in data set [5] and in data set [6] were 172 µM and 132 µM, respectively.

Turning to `Cc1ccc([S@@+]([O-])C2=C(c3ccccn3)OC(N)=C(C#N)[C@@H]2c2ccc(F)cc2)cc1`, the inhibition in data set [1] is 11.2%.

Take `COc1ccccc1CN[C@H]1C2CCN(CC2)[C@H]1C(c1ccccc1)c1ccccc1` [CP-96345]: in data set [7], the inhibition was determined as 85.3%. Moreover, the IC50 in [5] was 46.8 µM; in data set [6], 57.9 µM.

With `Cc1ccc(SC2=C(c3ccccn3)OC(NC(=O)C(F)(F)F)=C(C#N)[C@H]2c2ccccc2)cc1`, the results for the inhibition in data set [1] and in data set [2] were 36.8% and 6.93%, respectively. Moreover, the Activity worked out at 34.2% in [8] and 13.5% in data set [9].

Regarding `Cc1ccc([S@@+]([O-])C2=C(c3ccccn3)OC(N)=C(C#N)[C@@H]2c2ccc([N+](=O)[O-])cc2)cc1`, the figures for the inhibition in [1] and in data set [2] were 20.6% and 18.5%, respectively.

Consider `Cc1ccc([S@@+]([O-])C2=C(c3ccccn3)OC(N)=C(C#N)[C@@H]2c2ccc(Cl)cc2)cc1`, for which, in data set [1], the inhibition came to 5.8%.

Take `N#CC1=C(N)OC(c2ccccn2)=C([S+]([O-])c2ccc([N+](=O)[O-])cc2)C1c1ccc([N+](=O)[O-])cc1` (racemic): the inhibition in [1] is 56.1%; in data set [2] it was 35.6%. The IC50 in data set [5] turned out to be 536 µM; in [6] it was 825 µM.

For `N#CC1=C(N)OC(c2ccccn2)=C(S(=O)(=O)c2ccccc2)C1c1ccc([N+](=O)[O-])cc1` (racemic), the inhibition in [1] was 68.5%; in [2], 45.5%. The results for the IC50 in data set [10], in data set [5] and in data set [6] were 200 µM, 148 µM and 140 µM, respectively.

On to `Cc1ccc([S+]([O-])C2=C(c3ccccn3)OC(N)=C(C#N)C2c2ccc(F)cc2)cc1` (racemic), for which the inhibition in data set [1] was determined as 2.51%.

`Cc1ccc([S+]([O-])C2=C(c3ccccn3)OC(N)=C(C#N)C2c2ccc([N+](=O)[O-])cc2)cc1` (racemic): the inhibition in [1] was 28.9%; in data set [2], 30%.

For the compound `Cc1ccc([S@+]([O-])C2=C(c3ccccn3)OC(N)=C(C#N)[C@H]2c2ccc([N+](=O)[O-])cc2)cc1`, the inhibition in data set [1] amounted to 49.7%; in data set [2], 43.3%.

In the case of `CC(=O)NC1=C(C#N)[C@@H](c2ccc(C)cc2)C([S@@+]([O-])c2ccc(C)cc2)=C(c2ccccn2)O1`, the values for the inhibition in [1] and in data set [2] were 47.2% and 33.3%, respectively. The figures for the Activity in data set [8] and in data set [9] were 30.4% and 19.8%, respectively. Also, the IC50 in [5] came to 108 µM; in data set [6], 136 µM.

Consider `Cc1ccc([S+]([O-])C2=C(c3ccccn3)OC(N)=C(C#N)C2c2ccc(Cl)cc2)cc1` (racemic), for which the inhibition in [1] turned out to be 15.8%; in data set [2], 13.9%.

`Cc1ccc(C2C(C#N)=C(N)OC(c3cc(C(F)(F)F)cc(C(F)(F)F)c3)=C2[S+]([O-])c2ccc(C)cc2)cc1` (racemic): in data set [1], the inhibition was determined as 11.5%.

Regarding `N#CC1=C(N)OC(c2ccccn2)=C([S+]([O-])c2ccccc2)C1c1ccccc1` (racemic), the inhibition in data set [1] turned out to be 19.8%; in data set [2], 32%.

For `Cc1ccc([S@@+]([O-])C2=C(c3ccccn3)OC(N)=C(C#N)[C@@H]2c2ccccc2)cc1`, the figures for the inhibition in [1] and in data set [2] were 20.9% and 28.8%, respectively. Also, the results for the IC50 in data set [5] and in [6] were 196 µM and 425 µM, respectively.

For the compound `CC(=O)NC1=C(C#N)[C@H](c2ccc(C)cc2)C([S@+]([O-])c2ccc(C)cc2)=C(c2ccccn2)O1`, the inhibition stood at 37.1% in data set [1] and 21.4% in [2]. Moreover, the Activity in data set [8] is 30.4%.

As to `Cc1ccc([S@+]([O-])C2=C(c3ccccn3)OC(N)=C(C#N)[C@H]2c2cc(C(F)(F)F)cc(C(F)(F)F)c2)cc1`, the inhibition in data set [1] worked out at 28.6%; in data set [2], 30%.

On to `N#CC1=C(N)OC(c2ccccn2)=C([S+]([O-])c2ccc([N+](=O)[O-])cc2)C1c1ccc(Cl)cc1` (racemic), for which the inhibition in [1] is 32.2%.

Consider `Cc1ccc([C@@H]2C(C#N)=C(N)OC(c3ccccn3)=C2[S@@+]([O-])c2ccc(C)cc2)cc1`, for which the inhibition came out at 50.8% in data set [1] and 37% in data set [2].

Turning to `Cc1ccc([S@+]([O-])C2=C(c3ccccn3)OC(N)=C(C#N)[C@H]2c2ccc(F)cc2)cc1`, the inhibition in data set [1] is 21%.

As for `CC(O)C(=O)O` (configuration not stated) [LACTIC ACID], the IC50 in [5] stood at 26.6 µM; in [6], 23.9 µM.

For `Cc1ccc(C2C(C#N)=C(N)OC(c3ccccn3)=C2[S+]([O-])c2ccc(C)cc2)cc1` (racemic), the inhibition in data set [1] was 32.2%; in data set [2], 32.8%.

Consider `Cc1ccc([S+]([O-])C2=C(c3ccccn3)OC(N)=C(C#N)C2c2ccccc2)cc1` (racemic), for which the inhibition came to 24.4% in [1] and 35% in [2].

As for `Cc1ccc([C@H]2C(C#N)=C(N)OC(c3ccccn3)=C2[S@+]([O-])c2ccc(C)cc2)cc1`, the inhibition in [1] is 23.7%; in [2], 37.5%.

For `COc1ccc([C@@H]2C(C#N)=C(N)OC(c3ccccn3)=C2[S@@+]([O-])c2ccc(C)cc2)cc1`, the inhibition in [1] turned out to be 43.9%; in data set [2] it was 34.5%. In [11], the viability at 320 µM was determined as 7%. In [12], the viability at 48 h, 320 µM amounted to 70%. Moreover, the IC50 in data set [5] came to 156 µM; in data set [6], 430 µM.

As to `COc1ccc([C@H]2C(C#N)=C(N)OC(c3ccccn3)=C2[S@+]([O-])c2ccc(C)cc2)cc1`, the inhibition in data set [1] was 28.1%; in [2] it was -4.43%. Besides, the “growth inhibition (GI)” value in data set [13] was determined as 100%. Besides, in data set [14], the inhibition at 48 h, 1000 uM is 30%. In data set [15], the “growth inhibition (GI)” value is “Active”. Besides, half-maximal inhibition in [5] (IC50) required 508 µM.

Regarding `N#CC1=C(N)OC(c2ccccn2)=C([S+]([O-])c2ccccc2)C1c1ccc([N+](=O)[O-])cc1` (racemic), the inhibition came out at 45.9% in data set [1] and 33.5% in [2].

Turning to `COc1ccc(C2C(C#N)=C(N)OC(c3ccccn3)=C2[S+]([O-])c2ccccc2)cc1` (racemic), the inhibition in data set [1] came out at 11.1%.

Consider `Cc1ccc([S@+]([O-])C2=C(c3ccccn3)OC(N)=C(C#N)[C@H]2c2ccc(Cl)cc2)cc1`, for which the inhibition was found to be 21% in data set [1] and 30% in data set [2].

Regarding `Cc1ccc([S+]([O-])C2=C(c3ccco3)OC(N)=C(C#N)C2c2ccc(Cl)cc2)cc1` (racemic), the inhibition in data set [1] came out at 12.5%.

In the case of `N#CC1=C(N)OC(c2ccccn2)=C([S+]([O-])c2ccc([N+](=O)[O-])cc2)C1c1ccccc1` (racemic), the inhibition in [1] was 56.6%.

In the case of `Cc1ccc(SC2=C(c3ccccn3)OC(NC(=O)C(F)(F)F)=C(C#N)[C@H]2c2ccc([N+](=O)[O-])cc2)cc1`, the inhibition in data set [1] was determined as 23.8%. The values for the Activity in data set [8] and in data set [9] were 62.3% and 25.9%, respectively. Further, the EC50 in data set [16] was 350 µM.

In the case of `Cc1ccc(C2C(C#N)=C(N)OC(c3ccccn3)=C2[S+]([O-])c2ccc([N+](=O)[O-])cc2)cc1` (racemic), in data set [1], the inhibition was 38.1%.
